Data taken from PMC7058083, “Structural basis of ligand binding modes at the human formyl peptide receptor 2” (Nature Communications, 2020).
Changes are numbered by the printed parent chain. Residues, ends and D or L forms follow the SMILES beside them. *: point of attachment. For = O=C*

What was measured:
Experiment in all cases: Competition binding of fMLFK with WK(FITC)YMVm, flow cytometry on HEK293F cells
[1] = molecular target: T1, wild-type (WT) and mutant FPR2 (Homo sapiens, UniProt P25090); conditions: FPR2 WT; mean ± s.e.m., n=5; SEM
T1 construct: expressed in transfected cells; host or cells: HEK293F
T1 sequence (P25090 1-351): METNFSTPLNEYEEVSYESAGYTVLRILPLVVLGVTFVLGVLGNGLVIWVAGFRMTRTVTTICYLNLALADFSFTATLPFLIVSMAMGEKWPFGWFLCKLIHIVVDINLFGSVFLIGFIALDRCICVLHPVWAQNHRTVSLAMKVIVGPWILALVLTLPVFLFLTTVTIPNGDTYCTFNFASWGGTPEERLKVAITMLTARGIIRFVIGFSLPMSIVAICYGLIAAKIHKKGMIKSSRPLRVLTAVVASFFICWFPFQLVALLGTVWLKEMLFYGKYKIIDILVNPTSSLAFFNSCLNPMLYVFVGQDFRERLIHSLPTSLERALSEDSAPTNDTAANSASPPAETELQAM
Protocol: (§1) Flag-tagged wild-type and mutant FPR2s were cloned into the pTT5 vector and expressed in HEK293F cells. The cells were harvested, and washed with Hanks’ Balanced Salt Solution (HBSS) buffer supplemented with 0.5% bovine serum albumin and 20 mM HEPES, pH 7.4. The cells were then resuspended in the same buffer to the final concentration of 1 × 10^6 cells per ml. The cell-surface expression was measured as mentioned above. […] Mean fluorescent intensity of each well was then read by a FCM (flow cytometry) reader (Millipore). […] For competitive binding of fMLFK, cells were plated in 96-well plates (100,000 cells per well), and incubated with WK(FITC)YMVm at 4 °C for 1 h. The following concentrations of WK(FITC)YMVm were used: 10 nM (wild type, L81^2.60F, E89G, and V105^3.32A), 30 nM (D281^7.32G), 40 nM (H102^3.29F, V160^4.60A, L268^ECL3A, N285^7.36A, and F292^7.43A), and 100 nM (L164^4.64A and T177A). Then increasing concentrations of fMLFK (100 nM–1 mM) were added, and incubated for another 1 h on ice. Mean fluorescent intensity values were measured by flow cytometry. Data were analyzed using Prism 7.0.

[2] = molecular target: T2, wild-type (WT) and mutant FPR2 (Homo sapiens, UniProt P25090, T177A); conditions: FPR2 T177A; mean ± s.e.m., n=4; SEM
T2 construct: expressed in transfected cells; host or cells: HEK293F
T2 sequence (P25090 1-351 T177A): T1 sequence (P25090 1-351) with T177A
Protocol: as §1

[3] = molecular target: T3, wild-type (WT) and mutant FPR2 (Homo sapiens, UniProt P25090, F292A); conditions: FPR2 F292A; mean ± s.e.m., n=3; SEM
T3 construct: expressed in transfected cells; host or cells: HEK293F
T3 sequence (P25090 1-351 F292A): T1 sequence (P25090 1-351) with F292A
Protocol: as §1

[4] = molecular target: T4, wild-type (WT) and mutant FPR2 (Homo sapiens, UniProt P25090, D281G); conditions: FPR2 D281G; mean ± s.e.m., n=3; SEM
T4 construct: expressed in transfected cells; host or cells: HEK293F
T4 sequence (P25090 1-351 D281G): T1 sequence (P25090 1-351) with D281G
Protocol: as §1

[5] = molecular target: T5, wild-type (WT) and mutant FPR2 (Homo sapiens, UniProt P25090, L268A); conditions: FPR2 L268A; mean ± s.e.m., n=3; SEM
T5 construct: expressed in transfected cells; host or cells: HEK293F
T5 sequence (P25090 1-351 L268A): T1 sequence (P25090 1-351) with L268A
Protocol: as §1

## CSCC[C@H](NC=O)C(=O)N[C@@H](CC(C)C)C(=O)N[C@@H](Cc1ccccc1)C(=O)N[C@@H](CCCCN)C(=O)O [fMLFK] (For-MLFK-OH)
[1]
  pKi, competition binding: 4.08 ± 0.19
[2]
  pKi, competition binding: 3.97 ± 0.21
[3]
  pKi, competition binding: 4.54 ± 0.11
[4]
  pKi, competition binding: 4.66 ± 0.16
[5]
  pKi, competition binding: 4.42 ± 0.15
